Drawing on PMC7071059, “Targeting Receptor Tyrosine Kinase VEGFR-2 in Hepatocellular Cancer: Rational Design, Synthesis and Biological Evaluation of 1,2-Disubstituted Benzimidazoles” (Molecules, 2020), this text covers inhibition, IC50 and melting point for one compound.

Some results are limits rather than exact numbers.

One data set concerns HOP-92. The experiment in a line: NCI 60 one dose (10 μM) anticancer assay. The note with it: Homo sapiens, 10 µM one dose, Non-small cell lung Cancer, read-out: Growth Inhibition % HOP-92. The data set is classed as cell-based. In short, it runs like this:
(§1)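 Compounds selected by the NCI were screened in vitro at a single 10 μM concentration. The full 60-cell-line panel spans 9 cancer types. Values are percent growth inhibition of each cell line.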

In the next data set the test system is HCT-15. The experiment in a line: NCI 60 one dose (10 μM) anticancer assay. The data set is classed as cell-based. The note with it: Homo sapiens, 10 µM one dose, Colon Cancer, read-out: Growth Inhibition % HCT-15. The gist of the method: as §1
The test system of a further data set is CCRF-CEM. The experiment in a line: NCI 60 one dose (10 μM) anticancer assay. It is filed as cell-based. The note with it: Homo sapiens, 10 µM one dose, Leukemia, read-out: Growth Inhibition % CCRF-CEM. The gist of the method:
as §1

The subject of the next data set is SNB-75. The experiment in a line: NCI 60 one dose (10 μM) anticancer assay. It is filed as cell-based. The conditions noted are these: Homo sapiens, 10 µM one dose, CNS Cancer, read-out: Growth Inhibition % SNB-75. In short, it runs like this: as §1
For another data set, the system named is LOX IMVI. The experiment in a line: NCI 60 one dose (10 μM) anticancer assay. It is filed as cell-based. The conditions noted are these: Homo sapiens, 10 µM one dose, Melanoma, read-out: Growth Inhibition % LOX IMVI. In short, it runs like this:
as §1

The next data set relates to RXF 393. The experiment in a line: NCI 60 one dose (10 μM) anticancer assay. It is filed as cell-based. The conditions noted are these: Homo sapiens, 10 µM one dose, Renal Cancer, read-out: Growth Inhibition % RXF 393. In short, it runs like this: as §1
The test system of the next data set is SF-268. The experiment in a line: NCI 60 one dose (10 μM) anticancer assay. It is filed as cell-based. The note with it: Homo sapiens, 10 µM one dose, CNS Cancer, read-out: Growth Inhibition % SF-268. The gist of the method:
as §1

Another data set concerns K-562. The experiment in a line: NCI 60 one dose (10 μM) anticancer assay. It is filed as cell-based. The conditions noted are these: Homo sapiens, K562; 10 µM one dose; Leukemia; read-out: Growth Inhibition % K-562. In short, it runs like this:
as §1

The test system of a further data set is NCI-H226. The experiment in a line: NCI 60 one dose (10 μM) anticancer assay. The conditions noted are these: Homo sapiens, 10 µM one dose, Non-small cell lung Cancer, read-out: Growth Inhibition % NCI-H226. It is filed as cell-based. The gist of the method:
as §1

The test system of the next data set is EKVX. The experiment in a line: NCI 60 one dose (10 μM) anticancer assay. The note with it: Homo sapiens, 10 µM one dose, Non-small cell lung Cancer, read-out: Growth Inhibition % EKVX. The data set is classed as cell-based. The gist of the method:
as §1

The subject of another data set is HCT-116. The experiment in a line: NCI 60 one dose (10 μM) anticancer assay. It is filed as cell-based. The conditions noted are these: Homo sapiens, 10 µM one dose, Colon Cancer, read-out: Growth Inhibition % HCT-116. In short, it runs like this: as §1
Another data set relates to CAK1-1. The experiment in a line: NCI 60 one dose (10 μM) anticancer assay. It is filed as cell-based. The note with it: 10 µM one dose; Renal Cancer; read-out: Growth Inhibition % CAK1-1. In short, it runs like this:
as §1

A further data set deals with PRMI-8226. The experiment in a line: NCI 60 one dose (10 μM) anticancer assay. The conditions noted are these: 10 µM one dose; Leukemia; read-out: Growth Inhibition % PRMI-8226. The data set is classed as cell-based.
Another data set relates to A498. The experiment in a line: NCI 60 one dose (10 μM) anticancer assay. It is filed as cell-based. The note with it: Homo sapiens, 10 µM one dose, Renal Cancer, read-out: Growth Inhibition % A498. The gist of the method:
as §1

A further data set relates to PC-3. The experiment in a line: NCI 60 one dose (10 μM) anticancer assay. It is filed as cell-based. The conditions noted are these: Homo sapiens, 10 µM one dose, Prostate Cancer, read-out: Growth Inhibition % PC-3. In short, it runs like this: as §1
Another data set has as its system OVCAR-5. The experiment in a line: NCI 60 one dose (10 μM) anticancer assay. The conditions noted are these: Homo sapiens, 10 µM one dose, Ovarian Cancer, read-out: Growth Inhibition % OVCAR-5. The data set is classed as cell-based. In short, it runs like this: as §1
A further data set deals with HOP-62. The experiment in a line: NCI 60 one dose (10 μM) anticancer assay. The data set is classed as cell-based. The conditions noted are these: Homo sapiens, 10 µM one dose, Non-small cell lung Cancer, read-out: Growth Inhibition % HOP-62. In short, it runs like this: as §1
For another data set, the system named is BT-549. The experiment in a line: NCI 60 one dose (10 μM) anticancer assay. It is filed as cell-based. The conditions noted are these: Homo sapiens, 10 µM one dose, Breast Cancer, read-out: Growth Inhibition % BT-549. The gist of the method:
as §1

A further data set relates to HSF cell line. The experiment in a line: In vitro growth inhibitory activity on normal human skin fibroblast, SRB assay. It is filed as cell-based. The note with it: Homo sapiens, HSF; SRB assay, 48 h; normal cell line; mean of three independent experiments. As to the method:
The anticancer activity of the synthesized compounds was measured in vitro using the Sulfo-Rhodamine-B (SRB) assay according to Skehan et al.. Briefly, HepG2 or HSF cells (obtained from Nawah Scientific) were inoculated in 96-well microtiter plates (10^4 cells/ well) for 24 h before treatment with the tested compounds to allow attachment of cells to the walls of the plates. Test compounds were dissolved in DMSO immediately before use and diluted to the appropriate volume just before addition to the cell culture. […] Three wells were prepared for each individual dose. Monolayer cells were incubated with the compounds for 48 h at 37 °C and in an atmosphere of 5% CO2. After 48 h, cells were fixed, washed and stained for 30 min with 0.4% (w/v) SRB dissolved in 1% acetic acid. Unbound dye was removed by four washes with 1% acetic acid and attached stain was recovered with Tris-EDTA buffer. Color intensity was measured in an ELISA reader. The relation between surviving fraction and drug concentration was plotted to get the survival curve.
In general terms: The SRB assay estimates cell density from bound dye.

In another data set the target is VEGFR-2 (Homo sapiens, UniProt P35968). The experiment in a line: Biochemical kinase assay (Kinase-Glo Plus luminescence).
Chain of VEGFR-2 (P35968 20-1356): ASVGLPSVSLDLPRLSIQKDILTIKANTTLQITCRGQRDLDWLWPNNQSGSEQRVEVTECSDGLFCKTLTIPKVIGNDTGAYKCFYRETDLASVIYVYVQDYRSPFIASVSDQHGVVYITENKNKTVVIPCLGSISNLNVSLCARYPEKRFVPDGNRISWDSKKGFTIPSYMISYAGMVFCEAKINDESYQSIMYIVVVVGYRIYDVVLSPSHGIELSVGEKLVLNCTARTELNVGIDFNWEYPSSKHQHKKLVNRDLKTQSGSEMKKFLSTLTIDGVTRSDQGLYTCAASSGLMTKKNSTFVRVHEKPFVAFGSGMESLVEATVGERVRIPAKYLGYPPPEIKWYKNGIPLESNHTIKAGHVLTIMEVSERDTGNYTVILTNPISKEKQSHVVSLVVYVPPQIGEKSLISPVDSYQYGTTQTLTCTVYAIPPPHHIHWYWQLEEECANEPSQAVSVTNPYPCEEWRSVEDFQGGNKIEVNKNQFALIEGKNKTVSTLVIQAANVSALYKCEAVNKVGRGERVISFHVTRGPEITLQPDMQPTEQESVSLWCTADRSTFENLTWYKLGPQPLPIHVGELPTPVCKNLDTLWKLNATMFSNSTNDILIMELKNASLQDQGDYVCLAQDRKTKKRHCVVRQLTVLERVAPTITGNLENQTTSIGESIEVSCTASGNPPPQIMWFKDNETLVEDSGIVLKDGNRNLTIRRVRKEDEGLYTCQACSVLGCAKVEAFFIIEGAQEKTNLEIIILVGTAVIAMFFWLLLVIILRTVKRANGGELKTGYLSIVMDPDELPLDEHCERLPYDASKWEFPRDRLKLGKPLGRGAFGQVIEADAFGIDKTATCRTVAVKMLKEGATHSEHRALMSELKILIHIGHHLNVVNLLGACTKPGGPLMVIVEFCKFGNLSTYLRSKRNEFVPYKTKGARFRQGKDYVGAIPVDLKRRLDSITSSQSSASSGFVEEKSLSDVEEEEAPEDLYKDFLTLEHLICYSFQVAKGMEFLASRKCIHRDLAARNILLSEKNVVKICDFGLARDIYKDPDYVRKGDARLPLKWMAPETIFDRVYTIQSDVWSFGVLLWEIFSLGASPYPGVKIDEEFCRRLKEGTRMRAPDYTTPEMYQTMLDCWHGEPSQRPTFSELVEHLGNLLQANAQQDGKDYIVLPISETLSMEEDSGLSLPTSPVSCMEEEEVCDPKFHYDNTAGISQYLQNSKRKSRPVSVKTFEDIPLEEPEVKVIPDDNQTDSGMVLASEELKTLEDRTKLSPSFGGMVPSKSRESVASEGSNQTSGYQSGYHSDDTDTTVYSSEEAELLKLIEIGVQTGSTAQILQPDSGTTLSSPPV

Protocol for VEGFR-2: This assay was carried out using the VEGFR-2 kinase enzyme system or FGFR-1 kinase enzyme system and Kinase-Glo Plus luminescence kinase (Promega) kits according to the manufacturers´ protocols. This assay evaluated the activity of kinase by measuring the amount of ATP remaining in solution after a kinase reaction. The luminescent signal from the assay was related to the quantity of ATP available, which was inversely proportional to the amount of kinase activity. […] Subsequently, serial dilutions were carried out, and 5 µL of the dilution was added to a 50 µL reaction. The enzymatic reactions were performed at 30 °C for 45 minutes. The 50 µL reaction mixture contained 40 mM Tris, pH 7.4, 10 mM MgCl2, 0.1 mg/mL BSA, 1 mM DTT, 0.2 mg/ml Poly (Glu, Tyr) substrate, 10 μM ATP and protein. After the enzymatic reaction, 50 µL of Kinase-Glo Plus Luminescence kinase assay solution was added to each reaction, and the plates were incubated for 15 minutes at room temperature. The luminescence signal was measured using a Tecan–spark multimode microplate reader. The difference between luminescence intensities in the absence of Kinase (Lut) and in the presence of Kinase (Luc) was defined as 100% activity (Lut − Luc). Using a luminescence signal (Lu) in the presence of the compound, % activity was calculated as: % activity = {(Lut − Lu)/(Lut − Luc)}×100%, where Lu = the luminescence intensity in the presence of the compound.

The term inhibition denotes the percentage by which the read-out fell short of the control. Usually IC50 stands for the concentration needed to halve the response being measured. One may read the melting point as the temperature of the solid-liquid transition. `Cc1ccc(-c2nc3ccccc3n2CC(=O)N/N=C/c2cccc(OCc3ccccc3)c2)o1` [Compound 17b, (E)-N′-(3-(Benzyloxy)benzylidene)-2-(2-(5-methylfuran-2-yl)-1H-benzo[d]imidazol-1-yl)acetohydrazide] came in with a melting point of 180 to 182 °C. The inhibition at 10 µM in the data set with HOP-92 was 32%. The inhibition at 10 µM in the data set on HCT-15 was 35%. The inhibition at 10 µM with CCRF-CEM stood at 28%. Further, the inhibition at 10 µM in the data set with SNB-75 is 39%. The inhibition at 10 µM in the data set with LOX IMVI was found to be 23%. Besides, the inhibition at 10 µM in the data set on RXF 393 was 40%. In addition, the inhibition at 10 µM in the data set on SF-268 is 37%. Besides, the inhibition at 10 µM in the data set with K-562 was 54%. In the data set with NCI-H226, the inhibition at 10 µM is 25%. Also, in the data set with EKVX, the inhibition at 10 µM turned out to be 43%. For the same compound, the inhibition at 10 µM in the data set with HCT-116 amounted to 32%. Besides, in the data set on CAK1-1, the inhibition at 10 µM is 33%. In the data set on PRMI-8226, the inhibition at 10 µM came to 50%. Besides, the inhibition at 10 µM with A498 was found to be 16%. Also, in the data set with PC-3, the inhibition at 10 µM amounted to 46%. Moreover, the inhibition at 10 µM in the data set with OVCAR-5 was found to be 14%. For the same compound, the inhibition at 10 µM in the data set on HOP-62 was 15%. The inhibition at 10 µM with BT-549 was under 10%. This compound also gave an IC50 with HSF cell line of 4.8 µM. Moreover, the IC50 on VEGFR-2 is 0.14 ± 0.004 µM.
